Measurements: patent US12133855B2, “Lipid-like nanocomplexes and uses thereof” (Trustees of Tufts College, priority 2018, dated 2024)
Read-outs that look alike come from different tables or passages of the source.

What was measured:
[1] = system: HeLa-DsRed cells; assay: Internalization mechanism study with endocytosis inhibitors; type: cell-based; details: [lipidoid]=6.6 μg mL^−1, [(−30)GFP-Cre]=100 nM; 6 h
Source text: In this context, the internalization mechanism of the (−30)GFP-Cre/LNPs complexes was studied at first, by introducing different endocytosis inhibitors, i.e., sucrose (clathrin-mediated endocytosis inhibitor), methyl-β-cyclodextrin (M-β-CD, cholesterol-depleting agent), dynasore (dynamin II inhibitor) and nystatin (caveolin-mediated endocytosis inhibitor), following our previously reported procedures. […] Comparing to other combinatorial library studies, it is clear that even loaded with same cargoes and tested against same cell line, different lipidoids with different chemical structures could be internalized through very distinct pathways. Next, the genome-editing efficiencies of (−30)GFP-Cre/LNPs were determined by flow cytometry after 24 h of incubation (with 8 h of (−30)GFP-Cre/LNPs complex exposure). Three different concentrations of protein/lipidoid complexes (25 nM/1.7 μg mL^−1, 50 nM/3.4 μg mL^−1, and 100 nM/6.6 μg mL^−1) were tested for each lipidoid nanoparticle. […] For example, the DsRed^+ cells were recorded as 10.5%/24.9%/88.9%, 13.5%/55.4%/88.8%, and 27.7%/47.8%/94.7% for (−30)GFP-Cre loaded 75-OCholB, 76-OCholB and 77-OCholB, respectively, at the protein concentration of 25, 50 and 100 nM. […] Then, the cytotoxicity profiles of (−30)GFP-Cre/LNPs, (−30)GFP-Cre/Lpf2k and naked (−30)GFP-Cre at different concentrations against HeLa-DsRed cells (8 h of exposure; (−30)GFP-Cre/LNPs=25 nM/1.7 μg mL^−1, 50 nM/3.4 μg mL^−1, and 100 nM/6.6 μg mL^−1) are measured using MTT assay after 24 h of incubation. […] For (−30)GFP-Cre/75-OCholB treated cells, the viabilities were determined to be 95.5%, 91.8% and 83.1%, at the protein concentration of 25, 50 and 100 nM, respectively; the numbers for (−30)GFP-Cre/76-OCholB and (−30)GFP-Cre/77-OCholB are 97.8%/98.2%/97.2 and 100.9%/96.6%/98.6%. […] Meanwhile, the morphology changes of HeLa-DsRed cell treated with different nanoparticle formulations were studied and the results are shown in FIG. 15E. […]

[2] = Storage stability of LNPs (time-dependent DLS, DiO/DiI FRET); type: physicochemical; details: DiO and DiI encapsulated LNPs, 7 days of storage
Method: The morphologies of LNPs were further studied by the transmission electron microscopy (TEM). […] Subsequently, the stability of LNPs thus prepared was examined by DLS and fluorescence measurements.
The cell (HeLa and HeLa-DsRed cell lines) internalization studies were conducted using small molecular hydrophobic (nile red) and hydrophilic (calcein) fluorescent dyes and macromolecular fluorescent recombinant protein ((−30)GFP-Cre) loaded OCholB LNPs. The stabilities of cargo-loaded LNPs were examined at first using time-dependent DLS and fluorescence measurements.

[3] = system: HeLa-DsRed cells; type: cell-based; details: for cell viability: 8 h exposure, MTT after 24 h; for cell morphology changes: bright field images
Method: All experiments were performed in quadruplicate.
In this context, the internalization mechanism of the (−30)GFP-Cre/LNPs complexes was studied at first, by introducing different endocytosis inhibitors, i.e., sucrose (clathrin-mediated endocytosis inhibitor), methyl-β-cyclodextrin (M-β-CD, cholesterol-depleting agent), dynasore (dynamin II inhibitor) and nystatin (caveolin-mediated endocytosis inhibitor), following our previously reported procedures. […] Comparing to other combinatorial library studies, it is clear that even loaded with same cargoes and tested against same cell line, different lipidoids with different chemical structures could be internalized through very distinct pathways. Next, the genome-editing efficiencies of (−30)GFP-Cre/LNPs were determined by flow cytometry after 24 h of incubation (with 8 h of (−30)GFP-Cre/LNPs complex exposure). Three different concentrations of protein/lipidoid complexes (25 nM/1.7 μg mL^−1, 50 nM/3.4 μg mL^−1, and 100 nM/6.6 μg mL^−1) were tested for each lipidoid nanoparticle. […] For example, the DsRed^+ cells were recorded as 10.5%/24.9%/88.9%, 13.5%/55.4%/88.8%, and 27.7%/47.8%/94.7% for (−30)GFP-Cre loaded 75-OCholB, 76-OCholB and 77-OCholB, respectively, at the protein concentration of 25, 50 and 100 nM. […] Then, the cytotoxicity profiles of (−30)GFP-Cre/LNPs, (−30)GFP-Cre/Lpf2k and naked (−30)GFP-Cre at different concentrations against HeLa-DsRed cells (8 h of exposure; (−30)GFP-Cre/LNPs=25 nM/1.7 μg mL^−1, 50 nM/3.4 μg mL^−1, and 100 nM/6.6 μg mL^−1) are measured using MTT assay after 24 h of incubation. […] For (−30)GFP-Cre/75-OCholB treated cells, the viabilities were determined to be 95.5%, 91.8% and 83.1%, at the protein concentration of 25, 50 and 100 nM, respectively; the numbers for (−30)GFP-Cre/76-OCholB and (−30)GFP-Cre/77-OCholB are 97.8%/98.2%/97.2 and 100.9%/96.6%/98.6%. […] Meanwhile, the morphology changes of HeLa-DsRed cell treated with different nanoparticle formulations were studied and the results are shown in FIG. 15E. […] Samples found in upper left quadrant are non-toxic and inefficient for delivery; samples in lower left quadrant are toxic and inefficient; samples in lower right quadrant are efficient but toxic; samples in upper right quadrant are non-toxic and efficient, which would be top candidates for further study. It is clear that Lpf2k (shown in dotted purple circle) at high concentration is relatively efficient for genome editing, while also toxic to the target cells. On the other hand, most of the (−30)GFP-Cre loaded OCholB LNPs are almost non-toxic when compared to (−30)GFP-Cre/Lpf2k, similar to naked (−30)GFP-Cre protein. 87-OCholB, 90-OCholB and 304-OCholB (shown in dotted dark blue circle) are less efficient for genome-editing; while high genome editing efficacy and excellent tolerability were achieved by using 75-OCholB, 76-OCholB and 77-OCholB (shown in dotted green circle).

[4] = system: HEK 293 (human embryonic kidney cells); assay: GFP mRNA delivery (GFP+ cells); type: cell-based; details: LNP/mRNA=10/1, [mRNA]=0.86 μg mL^−1, 24 h
Method: (§1) To examine the delivery spectrum of the newly developed LNPs, the GFP mRNA loaded OCholB LNPs were then challenged against other four types of cell lines. B16F10 (mouse melanoma cells), HEK 293 (human embryonic kidney cells), NIH 3T3 (mouse embryonic fibroblast cells) and Jurkat (human T lymphocyte cells) cells were tested (LNP/mRNA=10/1; [mRNA]=0.86 μg mL^−1; 24 h exposure) and the results are shown in FIG. 14D. As the positive control, Lpf2k turned out to be very efficient to deliver GFP mRNA into B16F10 (63.2% of GFP^+ cells), HEK 293 (80.1%) and NIH 3T3 (70.1%) cells, while slightly less efficient to Jurkat cell (28.7%), which is usually considered to be one of the most difficult-to-transfect cell lines. […] For example, 63.0%, 60.9%, 54.1% and 50.1% of GFP^+ cells were determined from mRNA/75-OCholB treated B16F10, HEK 293, NIH 3T3 and Jurkat cells; and the numbers for mRNA/76-OCholB treated cells were 70.7%, 75.8%, 24.1% and 7.7%, respectively. It was obvious that not only the types of lipidoids, but also the target cell lines could have huge impacts on the delivery efficacy. Overall, the positive control, Lpf2k, is a relatively high-activity broad-spectrum transfection reagent; most of the OCholB LNPs (6 out of 9) are also effective broad-spectrum transfection reagents under the tested conditions. […] It was expected that through further formulation optimization, such as adding excipients (helper lipids like small molecular phospholipids (e.g. DOPE and DSPC) and macromolecules lipids (e.g. PEG-DSPE and PEG-Ceramide)) into the LNPs and/or using more controllable self-assembly procedures, improved transfection efficiency of the fully substituted OCholB LNPs could be achieved.

[5] = system: NIH 3T3 (mouse embryonic fibroblast cells); assay: GFP mRNA delivery (GFP+ cells); type: cell-based; details: LNP/mRNA=10/1, [mRNA]=0.86 μg mL^−1, 24 h
Method: as §1

[6] = system: B16F10 (mouse melanoma cells); assay: GFP mRNA delivery (GFP+ cells); type: cell-based; details: LNP/mRNA=10/1, [mRNA]=0.86 μg mL^−1, 24 h
Method: as §1

[7] = (−30)GFP-Cre 25 nM/1.7 μg mL^−1
[8] = (−30)GFP-Cre 50 nM/3.4 μg mL^−1
[9] = (−30)GFP-Cre 100 nM/6.6 μg mL^−1

| SMILES | internalization efficiency with endocytosis inhibitors [1] | FRET ratio (I575/I575+I505) variations [2] | cell viability [3, 7] | cell viability [3, 8] | cell viability [3, 9] | cell morphology changes [3] | GFP^+ cells [4] | GFP^+ cells [5] | GFP^+ cells [6] |
| --- | --- | --- | --- | --- | --- | --- | --- | --- | --- |
| CC(C)CCCC(C)C1CCC2C3CC=C4CC(OC(=O)NCCSSCCOC(=O)CCN(CCC(=O)OCCSSCCNC(=O)OC5CCC6(C)C(=CCC7C6CCC6(C)C(C(C)CCCC(C)C)CCC76)C5)CCN5CCCC5)CCC4(C)C3CCC12C (stereo not drawn) [Lipidoid 76-OCholB] | significantly suppressed by sucrose and dynasore | negligible variations | 97.8% | 98.2% | 97.2% | less affected | 75.8% | 24.1% | 70.7% |
| CC(C)CCCC(C)C1CCC2C3CC=C4CC(OC(=O)NCCSSCCOC(=O)CCN(CCC(=O)OCCSSCCNC(=O)OC5CCC6(C)C(=CCC7C6CCC6(C)C(C(C)CCCC(C)C)CCC76)C5)CCC5CCCN5C)CCC4(C)C3CCC12C (stereo not drawn) [Lipidoid 77-OCholB] | significantly suppressed by sucrose and dynasore | negligible variations | 100.9% | 96.6% | 98.6% | less affected | – | – | – |
| CCN(CC)CCN(CCC(=O)OCCSSCCNC(=O)OC1CCC2(C)C(=CCC3C2CCC2(C)C(C(C)CCCC(C)C)CCC32)C1)CCC(=O)OCCSSCCNC(=O)OC1CCC2(C)C(=CCC3C2CCC2(C)C(C(C)CCCC(C)C)CCC32)C1 (stereo not drawn) [Lipidoid 75-OCholB] | significantly suppressed by sucrose and dynasore | negligible variations | 95.5% | 91.8% | 83.1% | less affected | 60.9% | 54.1% | 63.0% |
